From patent US10815230B2, “Casein kinase 1 delta inhibitor” (ELECTROPHORETICS LIMITED, priority 2015, dated 2020)
Marks after values point to notes of the source that are not given here.

Legend:
Assay in all cases: Kinase selectivity, % remaining activity
Format in all cases: biochemical
Settings in all cases: 10 μM compound, 10 μM ATP, duplicate
CK1g3 = CK1g3 (Homo sapiens, UniProt Q9Y6M4)
Procedure: (§1) A two-tier strategy to determine the selectivity of compound A was applied: first, the compound was tested at a single concentration (in duplicate) to determine the %-remaining activity of the target kinase. Subsequently, the IC50 of compound A and comparative compounds for casein kinase 1 delta were determined.
(§2) Compounds were tested in single dose duplicate mode at a concentration of 10 μM (in DMSO) and reactions were carried out at 10 μM ATP, Table 3 reports the % of remaining activity (relative to DMSO).

DAPK1 = DAPK1 (Homo sapiens, UniProt P53355)
Procedure: as §1, §2

FGFR1 = FGFR1 (Homo sapiens, UniProt P11362)
Procedure: as §1, §2

c-Src = c-Src (Homo sapiens, UniProt P12931)
Procedure: as §1, §2

ALK5/TGFBR1 = molecular target: T1, ALK5/TGFBR1 (Homo sapiens, UniProt P36897)
T1 sequence (P36897 34-503): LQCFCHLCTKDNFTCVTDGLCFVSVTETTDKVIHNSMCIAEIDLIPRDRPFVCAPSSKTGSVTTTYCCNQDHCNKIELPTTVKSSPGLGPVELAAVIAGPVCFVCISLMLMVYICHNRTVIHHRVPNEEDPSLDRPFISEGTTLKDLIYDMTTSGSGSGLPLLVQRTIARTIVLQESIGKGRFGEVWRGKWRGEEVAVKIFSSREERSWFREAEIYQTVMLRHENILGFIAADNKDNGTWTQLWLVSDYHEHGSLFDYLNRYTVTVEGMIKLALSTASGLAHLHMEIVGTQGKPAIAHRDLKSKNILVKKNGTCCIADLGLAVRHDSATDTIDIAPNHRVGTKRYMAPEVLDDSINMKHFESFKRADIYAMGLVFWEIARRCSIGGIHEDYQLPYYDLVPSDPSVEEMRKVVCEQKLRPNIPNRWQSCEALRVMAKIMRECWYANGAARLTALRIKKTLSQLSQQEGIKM
Procedure: as §1, §2

JNK2 = JNK2 (Homo sapiens, UniProt P45984)
Procedure: as §1, §2

CK1g1 = CK1g1 (Homo sapiens, UniProt Q9HCP0)
Sequence of CK1g1 (Q9HCP0 whole entry): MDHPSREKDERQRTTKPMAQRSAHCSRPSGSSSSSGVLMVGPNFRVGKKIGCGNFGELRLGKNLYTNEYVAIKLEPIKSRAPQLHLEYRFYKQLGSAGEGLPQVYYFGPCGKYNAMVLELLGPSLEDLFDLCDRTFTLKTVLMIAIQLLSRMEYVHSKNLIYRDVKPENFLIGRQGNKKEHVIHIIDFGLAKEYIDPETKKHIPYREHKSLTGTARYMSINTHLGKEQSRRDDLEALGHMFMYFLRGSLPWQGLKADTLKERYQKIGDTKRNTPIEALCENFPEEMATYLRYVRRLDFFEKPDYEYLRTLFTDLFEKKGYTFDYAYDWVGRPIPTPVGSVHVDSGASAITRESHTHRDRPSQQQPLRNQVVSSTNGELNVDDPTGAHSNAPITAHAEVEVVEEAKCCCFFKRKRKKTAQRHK
Procedure: as §1, §2

RIPK2 = RIPK2 (Homo sapiens, UniProt O43353)
Procedure: as §1, §2

ABL2/ARG = ABL2/ARG (Homo sapiens, UniProt P42684)
Sequence of ABL2/ARG (P42684 whole entry): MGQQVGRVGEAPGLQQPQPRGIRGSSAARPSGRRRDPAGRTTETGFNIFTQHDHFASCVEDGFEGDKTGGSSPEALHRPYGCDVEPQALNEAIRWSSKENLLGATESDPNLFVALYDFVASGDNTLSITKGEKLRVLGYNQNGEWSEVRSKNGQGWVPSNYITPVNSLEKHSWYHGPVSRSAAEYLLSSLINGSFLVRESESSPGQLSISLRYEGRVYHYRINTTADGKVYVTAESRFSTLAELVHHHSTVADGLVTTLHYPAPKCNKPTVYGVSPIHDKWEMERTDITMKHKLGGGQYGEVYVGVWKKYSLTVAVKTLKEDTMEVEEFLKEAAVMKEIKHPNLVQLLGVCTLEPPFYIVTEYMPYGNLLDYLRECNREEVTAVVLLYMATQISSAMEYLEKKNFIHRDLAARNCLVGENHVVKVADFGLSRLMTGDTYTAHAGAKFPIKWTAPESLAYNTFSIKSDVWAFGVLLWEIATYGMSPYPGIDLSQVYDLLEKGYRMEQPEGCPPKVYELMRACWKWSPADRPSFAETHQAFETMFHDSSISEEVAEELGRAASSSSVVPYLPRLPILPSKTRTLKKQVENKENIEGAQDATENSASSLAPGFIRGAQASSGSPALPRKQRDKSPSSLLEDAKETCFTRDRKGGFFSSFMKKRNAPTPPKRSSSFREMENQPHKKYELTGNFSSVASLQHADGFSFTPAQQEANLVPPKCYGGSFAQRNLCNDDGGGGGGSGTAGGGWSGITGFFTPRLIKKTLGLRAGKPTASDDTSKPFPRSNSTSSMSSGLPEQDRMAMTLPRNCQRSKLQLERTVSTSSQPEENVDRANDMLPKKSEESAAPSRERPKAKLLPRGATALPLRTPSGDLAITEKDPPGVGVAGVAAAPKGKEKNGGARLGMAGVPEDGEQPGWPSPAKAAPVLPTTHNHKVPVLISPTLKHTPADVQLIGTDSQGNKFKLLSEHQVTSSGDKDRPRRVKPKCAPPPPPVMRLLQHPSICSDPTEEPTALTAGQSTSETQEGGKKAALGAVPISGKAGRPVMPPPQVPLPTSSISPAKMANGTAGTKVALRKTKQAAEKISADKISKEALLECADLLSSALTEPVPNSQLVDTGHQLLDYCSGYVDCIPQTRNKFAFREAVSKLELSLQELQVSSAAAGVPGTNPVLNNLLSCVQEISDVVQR
Procedure: as §1, §2

P38a/MAPK14 = P38a/MAPK14 (Homo sapiens, UniProt Q16539)
Procedure: as §1, §2

CDK5/p25 = CDK5/p25 (Homo sapiens, UniProt Q00535)
Sequence of CDK5/p25 (Q00535 whole entry, species assumed): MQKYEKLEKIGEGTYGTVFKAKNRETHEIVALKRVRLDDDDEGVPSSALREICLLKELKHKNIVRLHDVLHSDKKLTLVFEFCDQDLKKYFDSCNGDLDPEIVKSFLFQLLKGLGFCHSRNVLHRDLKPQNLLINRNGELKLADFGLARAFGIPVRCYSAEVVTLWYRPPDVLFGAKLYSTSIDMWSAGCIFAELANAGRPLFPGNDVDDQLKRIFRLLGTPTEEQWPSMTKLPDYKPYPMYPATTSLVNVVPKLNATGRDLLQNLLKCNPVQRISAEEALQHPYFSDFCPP
Procedure: as §1, §2

YES/YES1 = YES/YES1 (Homo sapiens, UniProt P07947)
Procedure: as §1, §2

GSK3B = GSK3B (Homo sapiens, UniProt P49841)
Procedure: as §1, §2

EGFR = EGFR (Homo sapiens, UniProt P00533)
Procedure: as §1, §2

CLK2 = CLK2 (Homo sapiens, UniProt P49760)
Procedure: as §1, §2

PKA = PKA (Homo sapiens, UniProt P17612)
Procedure: as §1, §2

PDK1/PDPK1 = molecular target: T2, PDK1/PDPK1 (Homo sapiens, UniProt O15530)
T2 sequence (O15530 1-556): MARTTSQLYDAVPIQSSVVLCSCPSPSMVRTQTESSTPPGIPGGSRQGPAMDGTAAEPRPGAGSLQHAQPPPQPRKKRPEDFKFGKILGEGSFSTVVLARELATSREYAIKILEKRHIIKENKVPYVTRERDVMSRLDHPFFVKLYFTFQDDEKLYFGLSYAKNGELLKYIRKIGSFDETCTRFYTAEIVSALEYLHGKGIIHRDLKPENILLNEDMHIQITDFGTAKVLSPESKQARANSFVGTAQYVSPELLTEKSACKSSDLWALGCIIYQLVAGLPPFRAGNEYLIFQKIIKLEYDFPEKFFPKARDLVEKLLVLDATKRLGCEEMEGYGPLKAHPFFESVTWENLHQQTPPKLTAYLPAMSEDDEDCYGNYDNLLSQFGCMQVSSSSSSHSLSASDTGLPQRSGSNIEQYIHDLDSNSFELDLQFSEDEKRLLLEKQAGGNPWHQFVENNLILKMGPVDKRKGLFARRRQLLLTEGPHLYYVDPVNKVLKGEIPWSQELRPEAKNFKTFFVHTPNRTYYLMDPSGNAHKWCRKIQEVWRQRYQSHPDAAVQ
Procedure: as §1, §2

CK1e = CK1e (Homo sapiens, UniProt P49674)
Sequence of CK1e (P49674 whole entry): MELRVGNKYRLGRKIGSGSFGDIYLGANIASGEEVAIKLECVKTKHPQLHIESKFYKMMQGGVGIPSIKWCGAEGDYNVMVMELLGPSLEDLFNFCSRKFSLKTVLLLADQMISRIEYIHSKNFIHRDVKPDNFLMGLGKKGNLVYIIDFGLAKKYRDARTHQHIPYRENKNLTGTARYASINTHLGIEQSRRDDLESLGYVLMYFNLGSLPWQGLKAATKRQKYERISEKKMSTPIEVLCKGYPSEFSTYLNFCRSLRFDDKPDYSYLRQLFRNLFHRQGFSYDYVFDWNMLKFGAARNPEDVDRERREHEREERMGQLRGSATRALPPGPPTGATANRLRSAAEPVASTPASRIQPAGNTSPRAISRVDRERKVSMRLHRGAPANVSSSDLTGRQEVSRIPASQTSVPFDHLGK
Procedure: as §1, §2

PIM3 = PIM3 (Homo sapiens, UniProt Q86V86)
Procedure: as §1, §2

CK1g2 = CK1g2 (Homo sapiens, UniProt P78368)
Sequence of CK1g2 (P78368 whole entry, species assumed): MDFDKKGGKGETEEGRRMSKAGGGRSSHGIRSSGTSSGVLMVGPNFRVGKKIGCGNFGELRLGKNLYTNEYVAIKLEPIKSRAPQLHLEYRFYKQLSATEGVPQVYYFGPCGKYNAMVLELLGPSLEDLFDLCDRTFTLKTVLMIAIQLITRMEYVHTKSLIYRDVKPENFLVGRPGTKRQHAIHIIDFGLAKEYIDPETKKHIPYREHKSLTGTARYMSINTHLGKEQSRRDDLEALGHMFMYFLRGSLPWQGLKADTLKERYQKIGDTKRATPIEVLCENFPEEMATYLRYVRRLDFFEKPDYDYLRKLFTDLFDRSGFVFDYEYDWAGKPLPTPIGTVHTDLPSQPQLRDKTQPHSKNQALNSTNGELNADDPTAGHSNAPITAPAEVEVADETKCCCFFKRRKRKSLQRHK
Procedure: as §1, §2

PKCb2 = PKCb2 (Homo sapiens, UniProt P05771)
Procedure: as §1, §2

MSK1/RPS6KA5 = MSK1/RPS6KA5 (Homo sapiens, UniProt O75582)
Procedure: as §1, §2

TNIK = TNIK (Homo sapiens, UniProt Q9UKE5)
Sequence of TNIK (Q9UKE5 whole entry): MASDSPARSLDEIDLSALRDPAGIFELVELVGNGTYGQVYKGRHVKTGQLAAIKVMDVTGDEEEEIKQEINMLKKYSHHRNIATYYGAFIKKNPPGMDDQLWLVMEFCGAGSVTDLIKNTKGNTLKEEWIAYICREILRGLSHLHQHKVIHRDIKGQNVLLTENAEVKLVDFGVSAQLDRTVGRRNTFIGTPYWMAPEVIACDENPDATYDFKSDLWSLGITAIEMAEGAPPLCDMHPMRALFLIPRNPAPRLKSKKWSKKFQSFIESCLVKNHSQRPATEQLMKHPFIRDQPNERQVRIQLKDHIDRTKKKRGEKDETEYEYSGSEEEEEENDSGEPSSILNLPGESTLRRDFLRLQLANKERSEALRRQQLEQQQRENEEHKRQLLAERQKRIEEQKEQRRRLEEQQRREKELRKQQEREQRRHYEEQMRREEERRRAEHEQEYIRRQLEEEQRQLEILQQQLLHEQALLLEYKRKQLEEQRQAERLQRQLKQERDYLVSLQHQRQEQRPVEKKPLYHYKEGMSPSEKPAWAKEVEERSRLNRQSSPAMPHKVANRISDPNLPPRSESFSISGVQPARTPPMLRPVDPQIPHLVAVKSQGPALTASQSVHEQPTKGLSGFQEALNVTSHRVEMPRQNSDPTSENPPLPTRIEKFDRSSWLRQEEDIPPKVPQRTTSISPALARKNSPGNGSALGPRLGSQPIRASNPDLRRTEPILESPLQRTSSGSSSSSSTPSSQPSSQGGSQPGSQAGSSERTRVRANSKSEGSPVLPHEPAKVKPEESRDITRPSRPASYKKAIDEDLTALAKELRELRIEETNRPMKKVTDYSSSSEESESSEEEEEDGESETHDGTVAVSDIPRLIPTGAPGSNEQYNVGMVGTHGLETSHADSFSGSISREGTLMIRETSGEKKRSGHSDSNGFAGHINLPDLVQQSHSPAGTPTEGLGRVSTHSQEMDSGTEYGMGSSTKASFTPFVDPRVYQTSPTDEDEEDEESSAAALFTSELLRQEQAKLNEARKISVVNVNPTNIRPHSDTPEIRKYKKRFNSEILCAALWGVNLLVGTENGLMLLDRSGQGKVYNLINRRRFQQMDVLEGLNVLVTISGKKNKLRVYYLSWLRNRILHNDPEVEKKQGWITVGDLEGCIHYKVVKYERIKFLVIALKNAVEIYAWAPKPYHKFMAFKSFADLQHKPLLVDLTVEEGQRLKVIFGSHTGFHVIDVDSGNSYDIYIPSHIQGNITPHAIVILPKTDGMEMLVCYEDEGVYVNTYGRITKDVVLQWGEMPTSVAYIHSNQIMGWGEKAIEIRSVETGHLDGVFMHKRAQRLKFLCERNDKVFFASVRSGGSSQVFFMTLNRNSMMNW
Procedure: as §1, §2

[1] = read-out: % of remaining activity (relative to DMSO)

Sequence of CK1g3 (Q9Y6M4 whole entry): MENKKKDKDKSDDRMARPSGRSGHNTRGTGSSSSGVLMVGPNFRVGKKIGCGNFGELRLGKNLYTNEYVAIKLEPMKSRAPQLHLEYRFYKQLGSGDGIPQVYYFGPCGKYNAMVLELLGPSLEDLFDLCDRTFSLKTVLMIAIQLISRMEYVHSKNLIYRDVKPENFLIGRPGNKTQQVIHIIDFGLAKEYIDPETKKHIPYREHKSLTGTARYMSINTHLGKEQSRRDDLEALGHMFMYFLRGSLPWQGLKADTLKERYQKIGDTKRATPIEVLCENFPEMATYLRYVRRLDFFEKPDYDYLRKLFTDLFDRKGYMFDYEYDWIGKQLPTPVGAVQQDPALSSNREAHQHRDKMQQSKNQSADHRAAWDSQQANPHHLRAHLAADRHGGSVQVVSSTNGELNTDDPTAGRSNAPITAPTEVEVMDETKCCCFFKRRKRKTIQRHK

CNc1c(C(N)=O)c2ccccn2c1C(=O)c1ccc(F)cc1 [Compound A, 2-methyl-amino-3-[(4-fluorophenyl)carbonyl]indolizine-1-carboxamide]
% of remaining activity (relative to DMSO) (CK1g3; listed as Cmp A): 97.24%
remaining activity at 10 µM (CK1g3; [1]): 98.5%
% of remaining activity (relative to DMSO) (DAPK1; listed as Cmp A): 124.50%
remaining activity at 10 µM (DAPK1; [1]): 134%
% of remaining activity (relative to DMSO) (FGFR1; listed as Cmp A): 95.15%
remaining activity at 10 µM (FGFR1; [1]): 95.7%
% of remaining activity (relative to DMSO) (c-Src; listed as Cmp A): 60.86%
remaining activity at 10 µM (c-Src; [1]): 61%
% of remaining activity (relative to DMSO) (ALK5/TGFBR1; listed as Cmp A): 109.38%
remaining activity at 10 µM (ALK5/TGFBR1; [1]): 110%
% of remaining activity (relative to DMSO) (JNK2; listed as Cmp A): 97.26%
remaining activity at 10 µM (JNK2; [1]): 99.9%
% of remaining activity (relative to DMSO) (CK1g1; listed as Cmp A): 119.87%
remaining activity at 10 µM (CK1g1; [1]): 107%
% of remaining activity (relative to DMSO) (RIPK2; listed as Cmp A): 91.39%
remaining activity at 10 µM (RIPK2; [1]): 93.5%
% of remaining activity (relative to DMSO) (ABL2/ARG; listed as Cmp A): 70.98%
remaining activity at 10 µM (ABL2/ARG; [1]): 71.3%
% of remaining activity (relative to DMSO) (P38a/MAPK14; listed as Cmp A): 34.47* %
remaining activity at 10 µM (P38a/MAPK14; [1]): 35.3%
% of remaining activity (relative to DMSO) (CDK5/p25; listed as Cmp A): 88.62%
remaining activity at 10 µM (CDK5/p25; [1]): 90.2%
% of remaining activity (relative to DMSO) (YES/YES1; listed as Cmp A): 60.09%
remaining activity at 10 µM (YES/YES1; [1]): 58.4%
% of remaining activity (relative to DMSO) (GSK3B; listed as Cmp A): 122.02%
remaining activity at 10 µM (GSK3B; [1]): 124%
% of remaining activity (relative to DMSO) (EGFR; listed as Cmp A): 52.51%
remaining activity at 10 µM (EGFR; [1]): 55.8%
% of remaining activity (relative to DMSO) (CLK2; listed as Cmp A): 105.40%
remaining activity at 10 µM (CLK2; [1]): 100%
% of remaining activity (relative to DMSO) (PKA; listed as Cmp A): 82.86%
remaining activity at 10 µM (PKA; [1]): 84.3%
% of remaining activity (relative to DMSO) (PDK1/PDPK1; listed as Cmp A): 105.50%
remaining activity at 10 µM (PDK1/PDPK1; [1]): 107%
% of remaining activity (relative to DMSO) (CK1e; listed as Cmp A): 3.67%
remaining activity at 10 µM (CK1e; [1]): 2.81%
% of remaining activity (relative to DMSO) (PIM3; listed as Cmp A): 119.96%
remaining activity at 10 µM (PIM3; [1]): 125%
% of remaining activity (relative to DMSO) (CK1g2; listed as Cmp A): 99.83%
remaining activity at 10 µM (CK1g2; [1]): 95.5%
% of remaining activity (relative to DMSO) (PKCb2; listed as Cmp A): 111.60%
remaining activity at 10 µM (PKCb2; [1]): 113%
% of remaining activity (relative to DMSO) (MSK1/RPS6KA5; listed as Cmp A): 111.83%
remaining activity at 10 µM (MSK1/RPS6KA5; [1]): 117%
% of remaining activity (relative to DMSO) (TNIK; listed as Cmp A): 94.12%
remaining activity at 10 µM (TNIK; [1]): 94.4%
